Read-outs that look alike come from different tables or passages of the source.
Assays:
Format in all cases: in vivo, mice
MRI-H-254 tumors = tested on: MRI-H-254 tumors
Protocol: Female athymic nude mice (Harlan Sprague Dawley, Madison, Wis.) were utilized for all experiments. Animals were housed in ventilated rack caging with food and water ad libitum. The mice were acclimated for at least 5 days prior to tumor implantation with tumor fragments.
Treatments were initiated on DPI 16.
(§1) Tumor size measurements were recorded twice weekly from the treatment initiation until the termination of the study.
(§2) Mean, standard deviation and standard error of the mean were determined for tumor volume for all animal groups at all assessments. Student's t test was performed on tumor volumes at each measurement day, including at the end of the study, to determine whether there were any statistically significant differences between combination treatment groups and single monotherapy treatment groups.

BxPC-3 tumors = settings: mg/kg/day: PM00104 0.90 IV, gemcitabine 180 IP
Protocol: Female CB17.SCID mice (Charles River Lab.) were utilized for all experiments. Animals were housed in ventilated rack caging with food and water ad libitum. The mice were acclimated for at least 5 days prior to tumor implantation with a tumor cell suspension.
The tumor model used in these studies was BxPC-3 cell line, which was obtained from the ATCC (Manassas, Va.).
Bacterial cultures were performed on aliquots of the cells prepared for implantation.
Treatments were initiated on DPI 14.
as §1, §2

NCI-H460 tumors = tested on: NCI-H460 tumors
Source text: Female athymic nude mice (Harlan Sprague Dawley, Madison, Wis.) were utilized for all experiments. Animals were housed in ventilated rack caging with food and water ad libitum. The mice were acclimated for at least 5 days prior to tumor implantation.
The tumor model used in this study was NCI-H460 cell line which is a human NSCLC cell line obtained from the ATCC (Manassas, Va.). […] Cells from in vitro passage 9 were those implanted SC into study mice.
Treatments were initiated on DPI 8.
Tumor size measurements were recorded 2-3 times/week from the treatment initiation until the termination of the study.
as §2

[1] = day 16, PM00104 0.90, cisplatin 3, irinotecan 10, paclitaxel 12.5 mg/kg/day
[2] = day 16, PM00104 0.90, cisplatin 5, irinotecan 18, paclitaxel 25 mg/kg/day
[3] = day 20, PM00104 0.90, cisplatin 3, irinotecan 10, paclitaxel 12.5 mg/kg/day
[4] = day 20, PM00104 0.90, cisplatin 5, irinotecan 18, paclitaxel 25 mg/kg/day
[5] = day 23, PM00104 0.90, cisplatin 3, irinotecan 10, paclitaxel 12.5 mg/kg/day
[6] = day 23, PM00104 0.90, cisplatin 5, irinotecan 18, paclitaxel 25 mg/kg/day
[7] = day 26, PM00104 0.90, cisplatin 3, irinotecan 10, paclitaxel 12.5 mg/kg/day
[8] = day 26, PM00104 0.90, cisplatin 5, irinotecan 18, paclitaxel 25 mg/kg/day
[9] = day 29, PM00104 0.90, cisplatin 3, irinotecan 10, paclitaxel 12.5 mg/kg/day
[10] = day 29, PM00104 0.90, cisplatin 5, irinotecan 18, paclitaxel 25 mg/kg/day
[11] = day 33, PM00104 0.90, cisplatin 3, irinotecan 10, paclitaxel 12.5 mg/kg/day
[12] = day 33, PM00104 0.90, cisplatin 5, irinotecan 18, paclitaxel 25 mg/kg/day
[13] = day 40, PM00104 0.90, cisplatin 3, irinotecan 10, paclitaxel 12.5 mg/kg/day
[14] = day 40, PM00104 0.90, cisplatin 5, irinotecan 18, paclitaxel 25 mg/kg/day
[15] = day 48, PM00104 0.90, cisplatin 3, irinotecan 10, paclitaxel 12.5 mg/kg/day
[16] = day 48, PM00104 0.90, cisplatin 5, irinotecan 18, paclitaxel 25 mg/kg/day
[17] = Gemcitabine 90 mg/kg/day IP, alone or with PM00104 0.9 mg/kg/day IV
[18] = PM00104 0.9 mg/kg/day IV and/or Gemcitabine 180 mg/kg/day IP

Question: Which “% Inhibition” value (MRI-H-254 tumors; [1]) does the source give for `N.N.[Cl][Pt][Cl]` [Cisplatin, cisplatin] here?
Answer: Its value is 1.6%.

Question: What about the “% T/C” value (MRI-H-254 tumors; [1]) of the same compound?
Answer: The value was 98.4%.

Question: And the “% Inhibition” value (MRI-H-254 tumors; [2])?
Answer: Its value is −0.5%.

Question: And the “% T/C” value (MRI-H-254 tumors; [2])?
Answer: The value was 100.5%.

Question: What about the “% Inhibition” value (MRI-H-254 tumors; [3]) of the same compound?
Answer: The value was 6.6%.

Question: What about the “% T/C” value (MRI-H-254 tumors; [3]) of the same compound?
Answer: The value was 93.4%.

Question: And the “% Inhibition” value (MRI-H-254 tumors; [4])?
Answer: The value was 2.2%.

Question: And the “% T/C” value (MRI-H-254 tumors; [4])?
Answer: Its value is 97.8%.

Question: What about the “% Inhibition” value (MRI-H-254 tumors; [5]) of the same compound?
Answer: Its value is 17.0%.

Question: What about the “% T/C” value (MRI-H-254 tumors; [5]) of the same compound?
Answer: The value was 83.0%.

Question: And the “% Inhibition” value (MRI-H-254 tumors; [6])?
Answer: The value was 24.7%.

Question: What about the “% T/C” value (MRI-H-254 tumors; [6]) of the same compound?
Answer: The value was 75.3%.

Question: What about the “% Inhibition” value (MRI-H-254 tumors; [7]) of the same compound?
Answer: The value was 18.5%.

Question: What about the “% T/C” value (MRI-H-254 tumors; [7]) of the same compound?
Answer: The value was 81.5%.

Question: And the “% Inhibition” value (MRI-H-254 tumors; [8])?
Answer: The value was 40.1%.

Question: And the “% T/C” value (MRI-H-254 tumors; [8])?
Answer: Its value is 59.9%.

Question: And the “% Inhibition” value (MRI-H-254 tumors; [9])?
Answer: Its value is 27.0%.

Question: What about the “% T/C” value (MRI-H-254 tumors; [9]) of the same compound?
Answer: The value was 73.0%.

Question: What about the “% Inhibition” value (MRI-H-254 tumors; [10]) of the same compound?
Answer: The value was 45.7%.

Question: And the “% T/C” value (MRI-H-254 tumors; [10])?
Answer: Its value is 54.3%.

Question: What about the “% Inhibition” value (MRI-H-254 tumors; [11]) of the same compound?
Answer: The value was 31.4%.

Question: What about the “% T/C” value (MRI-H-254 tumors; [11]) of the same compound?
Answer: Its value is 68.6%.

Question: What about the “% Inhibition” value (MRI-H-254 tumors; [12]) of the same compound?
Answer: Its value is 60.5%.

Question: And the “% T/C” value (MRI-H-254 tumors; [12])?
Answer: Its value is 39.5%.

Question: What about the “% Inhibition” value (MRI-H-254 tumors; [13]) of the same compound?
Answer: Its value is 44.7%.

Question: And the “% T/C” value (MRI-H-254 tumors; [13])?
Answer: The value was 55.3%.

Question: And the “% Inhibition” value (MRI-H-254 tumors; [14])?
Answer: Its value is 76.2%.

Question: And the “% T/C” value (MRI-H-254 tumors; [14])?
Answer: The value was 23.8%.

Question: What about the “% Inhibition” value (MRI-H-254 tumors; [15]) of the same compound?
Answer: The value was 50.8%.

Question: What about the “% T/C” value (MRI-H-254 tumors; [15]) of the same compound?
Answer: The value was 49.2%.

Question: And the “% Inhibition” value (MRI-H-254 tumors; [16])?
Answer: Its value is 82.9%.

Question: What about the “% T/C” value (MRI-H-254 tumors; [16]) of the same compound?
Answer: The value was 17.1%.

Question: Which results are given for `Nc1ccn([C@@H]2O[C@H](CO)[C@@H](O)C2(F)F)c(=O)n1` [Gemcitabine, gemcitabine]?
Answer: % Inhibition (BxPC-3 tumors; day 14): 3.1%; % T/C on day (BxPC-3 tumors; day 14): 96.9%; % Inhibition (BxPC-3 tumors; day 16): −44.6%; % T/C on day (BxPC-3 tumors; day 16): 144.6%; % Inhibition (BxPC-3 tumors; day 19): −15.6%; % T/C on day (BxPC-3 tumors; day 19): 115.6%; % Inhibition (BxPC-3 tumors; day 22): 25.5%; % T/C on day (BxPC-3 tumors; day 22): 74.5%; % Inhibition (BxPC-3 tumors; day 26): −6.1%; % T/C on day (BxPC-3 tumors; day 26): 106.1%; % Inhibition (BxPC-3 tumors; day 29): 20.7%; % T/C on day (BxPC-3 tumors; day 29): 79.3%; % Inhibition (BxPC-3 tumors; day 34): 31.3%; % T/C on day (BxPC-3 tumors; day 34): 68.7%; % Inhibition (BxPC-3 tumors; day 40): −33.9%; % T/C on day (BxPC-3 tumors; day 40): 133.9%; % T/C on day 8 (NCI-H460 tumors; [17]): 108.6%; % T/C on day 11 (NCI-H460 tumors; [17]): 83.2%; % T/C on day 14 (NCI-H460 tumors; [17]): 90.2%; % T/C on day 18 (NCI-H460 tumors; [17]): 65.3%; % T/C on day 21 (NCI-H460 tumors; [17]): 73.4%; % T/C on day 25 (NCI-H460 tumors; [17]): 63.2%; % T/C on day 28 (NCI-H460 tumors; [17]): 76.9%; % T/C on day 8 (NCI-H460 tumors; [18]): 101.3%; % T/C on day 14 (NCI-H460 tumors; [18]): 67.5%; % T/C on day 18 (NCI-H460 tumors; [18]): 52.0%; % T/C on day 21 (NCI-H460 tumors; [18]): 69.3%; % T/C on day 25 (NCI-H460 tumors; [18]): 58.7%; % T/C on day 28 (NCI-H460 tumors; [18]): 56.8%

— patent US20110070232A1, “Combination Therapy with an Antitumor Alkaloid” (Pharma Mar, S.A., priority 2008, published 2011)
